System: 293T cells
Assay: cells
Assay type: cell-based
Conditions: Homo sapiens, HEK-293T

Compound	IC50 (Table 2-2, 48 hours, CCK8)	IC50 (Table 4-3, CCK8)
CCCCCCCCC(CCCCCC)C(=O)OCCCCCCN(CCCCO)CCCCCCOC(=O)C(CCCCCC)CCCCCCCC (stereo not shown) [ALC0315]	145 µM	145 µM
CCCCCCCC/C=C\CCCCCCCC(=O)OC[C@H](C[N+](C)(C)C)OC(=O)CCCCCCC/C=C\CCCCCCCC [DOTAP, N-(2,3-dioleoyloxy)propyl)-N,N,N-trimethylammonium chloride]	40.7 µM	40.7 µM
